Measured values from patent US20250206730A1 (AUTOTELIC BIO INC., priority 2022, published 2025).

How the values were obtained:
TGF-β signaling = assay: Assay for evaluating cellular inhibition of TGF-β signaling, 4T1 (SBE-luc2P) luciferase reporter; assay type: cell-based; settings: Mus musculus, 4T1, 4T1 (SBE-luc2P) transient pool, 0.2% FBS, 2 h pre-treatment, TGF-β1 2 ng/mL 24 h; read-out: IC50 4T1 Cell
Summary of the method: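 4T1 cells transiently carrying SBE-luc2P (6×10^3/well, 0.2% FBS, ~60% confluence) or HEK293 SBE-reporter stable cells (2.5×10^4/well, 0.5% FBS, ~80% confluence) pre-treated with compound for 2 h. TGF-β1 (2 ng/mL) then added for 24 h at 37 °C; luciferase luminescence read from lysates.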

ALK5 kinase = target: T1, ALK5 kinase (Homo sapiens, UniProt P36897); assay: LanthaScreen Eu Kinase Binding Assay; settings: Kinase Tracer 178, Eu-anti-GST Antibody, read-out: IC50 Enzyme
T1 sequence (P36897 34-503): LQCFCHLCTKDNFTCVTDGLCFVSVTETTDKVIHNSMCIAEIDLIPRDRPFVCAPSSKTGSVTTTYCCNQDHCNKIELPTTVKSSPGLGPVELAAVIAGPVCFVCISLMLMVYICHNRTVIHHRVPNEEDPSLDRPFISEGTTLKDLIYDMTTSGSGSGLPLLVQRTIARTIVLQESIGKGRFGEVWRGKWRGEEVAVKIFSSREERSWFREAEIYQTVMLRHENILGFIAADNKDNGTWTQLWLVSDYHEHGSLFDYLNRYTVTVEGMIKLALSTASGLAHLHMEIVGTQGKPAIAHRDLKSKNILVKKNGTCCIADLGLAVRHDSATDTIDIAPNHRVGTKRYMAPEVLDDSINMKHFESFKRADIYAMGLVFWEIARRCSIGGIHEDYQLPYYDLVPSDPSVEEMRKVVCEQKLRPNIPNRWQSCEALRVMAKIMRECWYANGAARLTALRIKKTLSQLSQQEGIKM
Procedure: [Example 1] LanthaScreen Eu Kinase Binding Assay
4 μL of 4× Test Compound in 4% DMSO and 4 μL of 4× Kinase in Kinase buffer were added to wells (low volume, white 384-well plate (Greiner Cat. #784207)). The plate was shaken for 30 seconds, centrifuged for 10 seconds at 1000 rpm, and incubated at RT for 30 minutes. Then, 4 μL of 4× Eu-anti-GST Antibody and 4 μL of 4× Kinase Tracer 178 were added to the wells. The plate was shaken for 30 seconds, centrifuged for 10 seconds at 1000 rpm, and incubated at RT for 60 minutes. Fluorescence was measured by a plate reader, Biotek Synergy H1 (Vermont, USA) under the following conditions. • Excitation: 340 nm (3 nm bandpass) • Kinase tracer emission: 665 nm (10 nm bandpass) • Eu Ab emission: 615 nm (10 nm bandpass) • Emission ratio=665 nm (tracer)/615 nm (Eu Ab) • The higher the binding affinity of compound to ALK5 kinase is, the less the emission ratio is.

SMILES | IC50 (TGF-β signaling) [nM] | IC50 (ALK5 kinase) [nM]
Cc1nc(-c2ccccc2)c(Oc2ccnc(Nc3cccc(C(N)=O)c3)c2)s1 [A-60, 3-((4-((2-Methyl-4-phenylthiazol-5-yl)oxy)pyridin-2-yl)amino)benzamide] | < 100 | < 100
Cc1nc(-c2ccccc2)c(Oc2ccnc(Nc3cccc(C(C)(C)O)c3)c2)s1 [A-61, 2-(3-((4-((2-Methyl-4-phenylthiazol-5-yl)oxy)pyridin-2-yl)amino)phenyl)propan-2-ol] | < 100 | < 100
Cc1nc(-c2ccccc2)c(Oc2ccnc(Nc3ccc(C(N)=O)cc3)c2)s1 [A-63] | > 100 | < 100
Cc1nc(-c2ccccc2)c(Oc2ccnc(Nc3ccc(S(N)(=O)=O)cc3)c2)s1 [A-64, 4-((4-((2-Methyl-4-phenylthiazol-5-yl)oxy)pyridin-2-yl)amino)benzenesulfonamide] | > 100 | < 100
Cc1nc(-c2ccccc2)c(Oc2ccnc(Nc3ccc(C(C)(C)O)nc3)c2)s1 [A-65, 2-(5-((4-((2-Methyl-4-phenylthiazol-5-yl)oxy)pyridin-2-yl)amino)pyridin-2-yl)propan-2-ol] | > 100 | < 100
Cc1nc(-c2ccccc2)c(Oc2ccnc(Nc3cccc(C(C)(C)C(=O)O)c3)c2)s1 [A-66, 2-Methyl-2-(3-((4-((2-methyl-4-phenylthiazol-5-yl)oxy)pyridin-2-yl)amino)phenyl)propanoic acid] | < 100 | < 100
Cc1nc(-c2ccccc2)c(Oc2ccnc(Nc3cccc(S(=O)(=O)O)c3)c2)s1 [A-68, 3-((4-((2-Methyl-4-phenylthiazol-5-yl)oxy)pyridin-2-yl)amino)benzenesulfonic acid] | > 100 | < 100
CNC(=O)c1cccc(Nc2cc(Oc3sc(C)nc3-c3ccccc3)ccn2)c1 [A-69, N-Methyl-3-((4-((2-methyl-4-phenylthiazol-5-yl)oxy)pyridin-2-yl)amino)benzamide] | < 100 | < 100
Cc1nc(-c2ccccc2)c(Oc2ccnc(Nc3cccc(S(C)(=O)=O)c3)c2)s1 [A-70, 4-((2-Methyl-4-phenylthiazol-5-yl)oxy)-N-(3-(methylsulfonyl)phenyl)pyridin-2-amine] | < 100 | < 100
Cc1nc(-c2ccccc2)c(Oc2ccnc(Nc3cccc(NS(C)(=O)=O)c3)c2)s1 [A-71, N-(3-((4-((2-Methyl-4-phenylthiazol-5-yl)oxy)pyridin-2-yl)amino)phenyl)methanesulfonamide] | < 100 | < 100
Cc1nc(-c2ccccc2)c(Oc2ccnc(Nc3cccc(S(=O)(=O)C(F)(F)F)c3)c2)s1 [A-72, 4-((2-Methyl-4-phenylthiazol-5-yl)oxy)-N-(3-((trifluoromethyl)sulfonyl)phenyl)pyridin-2-amine] | > 100 | > 100
Cc1nc(-c2ccccc2)c(Oc2ccnc(Nc3ccc(C(N)=O)nc3)c2)s1 [A-91, 5-((4-((2-Methyl-4-phenylthiazol-5-yl)oxy)pyridin-2-yl)amino)picolinamide] | > 100 | < 100
Cc1nc(-c2ccccc2)c(Oc2ccnc(Nc3cncc(C(N)=O)c3)c2)s1 [A-92, 5-((4-((2-Methyl-4-phenylthiazol-5-yl)oxy)pyridin-2-yl)amino)nicotinamide] | < 100 | < 100
Cc1nc(-c2ccccc2)c(Oc2ccnc(Nc3cc(C(N)=O)ccn3)c2)s1 [A-93, 2-((4-((2-Methyl-4-phenylthiazol-5-yl)oxy)pyridin-2-yl)amino)isonicotinamide] | < 100 | < 100
Cc1nc(-c2ccccc2)c(Oc2ccnc(Nc3ccc(N4CCNCC4)cc3)c2)s1 [A-104, 4-((2-Methyl-4-phenylthiazol-5-yl)oxy)-N-(4-(piperazin-1-yl)phenyl)pyridin-2-amine] | < 100 | < 100
Cc1nc(-c2ccccc2)c(Oc2ccnc(Nc3ccc(OCCN4CCCCC4)cc3)c2)s1 [A-105, 4-((2-Methyl-4-phenylthiazol-5-yl)oxy)-N-(4-(2-(piperidin-1-yl)ethoxy)phenyl)pyridin-2-amine] | < 100 | < 100

SMILES | IC50 (TGF-β signaling) [nM] | IC50 (ALK5 kinase) [nM]
Cc1nc(-c2ccccc2)c(Oc2ccnc(Nc3cccc(NS(=O)(=O)C(F)(F)F)c3)c2)s1 [A-107, 1,1,1-Trifluoro-N-(3-((4-((2-methyl-4-phenylthiazol-5-yl)oxy)pyridin-2-yl)amino)phenyl)methanesulfonamide] | < 100 | < 100
Cc1nc(-c2ccccc2)c(Oc2ccnc(Nc3cccc(C(=O)O)c3)c2)s1 [A-109, 3-((4-((2-Methyl-4-phenylthiazol-5-yl)oxy)pyridin-2-yl)amino)benzoic acid] | > 100 | < 100
Cc1nc(-c2ccccc2)c(Oc2ccnc(Nc3ccc(C(=O)O)cc3)c2)s1 [A-110, 4-((4-((2-Methyl-4-phenylthiazol-5-yl)oxy)pyridin-2-yl)amino)benzoic acid] | > 100 | < 100
Cc1nc(-c2ccccc2)c(Oc2ccnc(Nc3cccc(CC#N)c3)c2)s1 [A-111, 2-(3-((4-((2-Methyl-4-phenylthiazol-5-yl)oxy)pyridin-2-yl)amino)phenyl)acetonitrile] | < 100 | < 100
Cc1nc(-c2ccccc2)c(Oc2ccnc(Nc3cccc(Cc4nnn[nH]4)c3)c2)s1 [A-112, N-(3-((1H-Tetrazol-5-yl)methyl)phenyl)-4-((2-methyl-4-phenylthiazol-5-yl)oxy)pyridin-2-amine] | < 100 | < 100
Cc1nc(-c2ccccc2)c(Oc2ccnc(Nc3cccc(CCC#N)c3)c2)s1 [A-113, 3-(3-((4-((2-Methyl-4-phenylthiazol-5-yl)oxy)pyridin-2-yl)amino)phenyl)propanenitrile] | < 100 | < 100
Cc1nc(-c2ccccc2)c(Oc2ccnc(Nc3cccc(CCc4nn[nH]n4)c3)c2)s1 [A-114, N-(3-(2-(2H-Tetrazol-5-yl)ethyl)phenyl)-4-((2-methyl-4-phenylthiazol-5-yl)oxy)pyridin-2-amine] | < 100 | < 100
CC(C)(O)c1cccc(Nc2cc(Oc3sc(C4CC4)nc3-c3ccccc3)ccn2)c1 [A-115, 2-(3-((4-((2-Cyclopropyl-4-phenylthiazol-5-yl)oxy)pyridin-2-yl)amino)phenyl)propan-2-ol] | > 100 | < 100
NS(=O)(=O)c1cccc(Nc2cc(Oc3sc(C4CC4)nc3-c3ccccc3)ccn2)c1 [A-116, 3-((4-((2-Cyclopropyl-4-phenylthiazol-5-yl)oxy)pyridin-2-yl)amino)benzenesulfonamide] | < 100 | < 100
NC(=O)c1cccc(Nc2cc(Oc3sc(C4CC4)nc3-c3ccccc3)ccn2)c1 [A-117, 3-((4-((2-Cyclopropyl-4-phenylthiazol-5-yl)oxy)pyridin-2-yl)amino)benzamide] | < 100 | < 100
NS(=O)(=O)c1ccc(Nc2cc(Oc3sc(C4CC4)nc3-c3ccccc3)ccn2)cc1 [A-118, 4-((4-((2-Cyclopropyl-4-phenylthiazol-5-yl)oxy)pyridin-2-yl)amino)benzenesulfonamide] | > 100 | < 100
NC(=O)c1ccc(Nc2cc(Oc3sc(C4CC4)nc3-c3ccccc3)ccn2)cc1 [A-119, 4-((4-((2-Cyclopropyl-4-phenylthiazol-5-yl)oxy)pyridin-2-yl)amino)benzamide] | < 100 | < 100
CC(C)(O)c1cc(Nc2cc(Oc3sc(C4CC4)nc3-c3ccccc3)ccn2)ccn1 [A-120, 2-(4-((4-((2-Cyclopropyl-4-phenylthiazol-5-yl)oxy)pyridin-2-yl)amino)pyridin-2-yl)propan-2-ol] | > 100 | < 100
CC(C)(O)c1ccc(Nc2cc(Oc3sc(C4CC4)nc3-c3ccccc3)ccn2)cn1 [A-121, 2-(5-((4-((2-Cyclopropyl-4-phenylthiazol-5-yl)oxy)pyridin-2-yl)amino)pyridin-2-yl)propan-2-ol] | > 100 | < 100
CCS(=O)(=O)Nc1cccc(Nc2cc(Oc3sc(C4CC4)nc3-c3ccccc3)ccn2)c1 [A-122, N-(3-((4-((2-Cyclopropyl-4-phenylthiazol-5-yl)oxy)pyridin-2-yl)amino)phenyl)ethanesulfonamide] | < 100 | < 100
